Patent US9497970B2, “Pesticide compounds” (priority 2013, dated 2016)

What was measured:
Type in all cases: in vivo
[1] = tested on: Green Peach Aphid (Myzus persicae); test: B.9 Green Peach Aphid (Myzus persicae), sprayed bell pepper plants; conditions: 120 h, infested bell pepper plants sprayed, after 5 days, in comparison with untreated controls
Method: B.9 Green Peach Aphid (Myzus persicae)
The active compounds were formulated by a Tecan liquid handler in 100% cyclohexa none as a 10,000 ppm solution supplied in tubes. The 10,000 ppm solution was serially diluted in 100% cyclohexanone to make interim solutions. These served as stock solutions for which final dilutions were made by the Tecan in 50% acetone:50% water (v/v) into 5 or 10 ml glass vials. A nonionic surfactant (Kinetic®) was included in the solution at a volume of 0.01% (v/v). The vials were then inserted into an automated electrostatic sprayer equipped with an atomizing nozzle for application to plants/insects.
Bell pepper plants at the first true-leaf stage were infested prior to treatment by placing heavily infested leaves from the main colony on top of the treatment plants. Aphids were allowed to transfer overnight to accomplish an infestation of 30-50 aphids per plant and the host leaves were removed. The infested plants were then sprayed by an automated electrostatic plant sprayer equipped with an atomizing spray nozzle. The plants were dried in the sprayer fume hood, removed, and then maintained in a growth room under fluorescent lighting in a 24-hr photoperiod at about 25° C. and about 20-40% relative humidity. Aphid mortality on the treated plants, relative to mortality on untreated control plants, was determined after 5 days.

[2] = tested on: Yellow Fever Mosquito (Aedes aegypti); test: whole plant or invertebrate; conditions: 48 h, freshly hatched larvae in tap water, 2 days, in comparison with untreated controls, read-out: mortality (larval)
Method: B.11 Yellow Fever Mosquito (Aedes aegypti)
For evaluating control of yellow fever mosquito (Aedes aegypti) the test unit consisted of 96-well-microtiter plates containing 200 μl of tap water per well and 5-15 freshly hatched A. aegypti larvae.
The active compounds were formulated using a solution containing 75% (v/v) water and 25% (v/v) DMSO. Different concentrations of formulated compounds or mixtures were sprayed onto the insect diet at 2.5 μl, using a custom built micro atomizer, at two replications.

[3] = tested on: Orchid thrips (dichromothrips corbetti); test: B.12 Orchid thrips (dichromothrips corbetti), floral-immersion technique; conditions: adult thrips on dipped orchid petals, 72 hours after treatment, in comparison with untreated controls
Summary of the method: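 Whole orchid flower petals were dipped in compound in 1:1 acetone:water with 0.01% v/v Kinetic HV, dried, and enclosed with about 20 adult thrips. They were held under continuous light at about 28° C. Live thrips were counted and percent mortality recorded at 72 hours.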

[4] = tested on: Mediterranean Fruitfly (Ceratitis capitata); test: B.6 Mediterranean Fruitfly (Ceratitis capitata), microtiter plate insect diet; conditions: 120 h, 800 ppm, sprayed onto insect diet, 5 days, in comparison with untreated controls, read-out: mortality (egg and larval)
Summary of the method: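 Insect diet with 50-80 C. capitata eggs sprayed with compounds formulated in 75% water/25% DMSO, at different concentrations, two replications. Incubation at about 28±1° C and 80±5% relative humidity for 5 days, then egg and larval mortality assessed visually.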

[5] = tested on: Boll Weevil (Anthonomus grandis); test: B.3 Boll Weevil (Anthonomus grandis), microtiter plate insect diet; conditions: 120 h, 800 ppm, sprayed onto insect diet, 5 days, in comparison with untreated controls, read-out: mortality (egg and larval)
Summary of the method: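 Compounds in 25% DMSO/water sprayed at several concentrations onto insect diet in microtiter wells holding 5–10 A. grandis eggs, two replicates. Plates kept 5 days at about 25±1 °C and 75±5% RH. Egg and larval mortality scored visually.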

[6] = tested on: Diamond Back Moth (Plutella xylostella); test: B.1 Diamond Back Moth (Plutella xylostella), cabbage leaf dip; conditions: foliar, 500 ppm, 3rd instar larvae on dipped cabbage leaves, 72 hours after treatment, in comparison with untreated controls, read-out: mortality
Summary of the method: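 Cabbage leaves dipped in compound in 1:1 water:acetone with 0.01% Kinetic HV surfactant, air-dried, then infested with ten 3rd-instar larvae on moist filter paper. Mortality scored at 72 h after treatment; feeding damage rated on a 0-100% scale.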

[7] = tested on: Tobacco Budworm (Heliothis virescens); test: B.7 Tobacco Budworm (Heliothis virescens) I, microtiter plate insect diet; conditions: 120 h, 800 ppm, sprayed onto insect diet, 5 days, in comparison with untreated controls, read-out: mortality (egg and larval)
Summary of the method: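 96-well plates with insect diet and 15-25 H. virescens eggs; compounds in 75% water/25% DMSO sprayed onto diet at several concentrations, two replicates. Plates held at about 28±1° C. and 80±5% relative humidity for 5 days, then egg and larval mortality scored visually.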

[8] = tested on: Silverleaf Whitefly (Bemisia argentifoli); test: B.5 Silverleaf Whitefly (Bemisia argentifoli), sprayed cotton plants; conditions: 72 h, whitefly adults on sprayed cotton plants, 3 days after treatment, in comparison with untreated controls
Method: B.5 Silverleaf Whitefly (Bemisia argentifoli)
(§1) The active compounds were formulated by a Tecan liquid handler in 100% cyclohexanone as a 10,000 ppm solution supplied in tubes. The 10,000 ppm solution was serially diluted in 100% cyclohexanone to make interim solutions. These served as stock solutions for which final dilutions were made by the Tecan in 50% acetone:50% water (v/v) into 5 or 10 ml glass vials. A nonionic surfactant (Kinetic®) was included in the solution at a volume of 0.01% (v/v). The vials were then inserted into an automated electrostatic sprayer equipped with an atomizing nozzle for application to plants/insects.
Cotton plants at the cotyledon stage (one plant per pot) were sprayed by an automated electrostatic plant sprayer equipped with an atomizing spray nozzle. The plants were dried in the sprayer fume hood and then removed from the sprayer. Each pot was placed into a plastic cup and about 10 to 12 whitefly adults (approximately 3-5 days old) were introduced. The insects were collected using an aspirator and a nontoxic Tygon® tubing connected to a barrier pipette tip. The tip, containing the collected insects, was then gently inserted into the soil containing the treated plant, allowing insects to crawl out of the tip to reach the foliage for feeding. Cups were covered with a reusable screened lid. Test plants were maintained in a growth room at about 25° C. and about 20-40% relative humidity for 3 days, avoiding direct exposure to fluorescent light (24 hour photoperiod) to prevent trapping of heat inside the cup. Mortality was assessed 3 days after treatment, compared to untreated control plants.

[9] = tested on: Southern Armyworm (Spodoptera eridania), 2nd Instar Larvae; test: B.10 Southern Armyworm (Spodoptera eridania), 2nd Instar Larvae, sprayed lima bean plants; conditions: 96 h, 300 ppm, larvae on sprayed lima bean plants, 4 days after treatment, in comparison with untreated controls, read-out: mortality
Method: B.10 Southern Armyworm (Spodoptera eridania), 2nd Instar Larvae
as §1
Lima bean plants (variety Sieva) were grown 2 plants to a pot and selected for treatment at the 1st true leaf stage. Test solutions were sprayed onto the foliage by an automated electrostatic plant sprayer equipped with an atomizing spray nozzle. The plants were dried in the sprayer fume hood and then removed from the sprayer. Each pot was placed into perforated plastic bags with a zip closure. About 10 to 11 armyworm larvae were placed into the bag and the bags zipped closed. Test plants were maintained in a growth room at about 25° C. and about 20-40% relative humidity for 4 days, avoiding direct exposure to fluorescent light (24 hour photoperiod) to prevent trapping of heat inside the bags. Mortality and reduced feeding were assessed 4 days after treatment, compared to untreated control plants.

Cc1cc(Br)cc(C)c1NC(=S)N/N=C/c1ccc2c(ccc3c2ncn3-c2ccc(OC(F)(F)F)cc2)c1 [C-4, 1-(4-bromo-2,6-dimethyl-phenyl)-3-[(E)-[3-[4-(trifluoromethoxy)phenyl]benzo[e]benzimidazol-7-yl]methyleneamino]thiourea]
≥ 75%: mortality at 800 ppm [1] | mortality at 800 ppm [2] | mortality at 500 ppm [3] | mortality at 800 ppm [4] | mortality at 800 ppm [5] | mortality at 500 ppm [6] | mortality at 800 ppm [7]

Cc1cccc(C)c1NC(=S)N/N=C/c1ccc2c(c1)CCc1c-2noc1-c1ccc(OC(F)(F)F)cc1 [C-7, 1-(2,6-dimethylphenyl)-3-[(E)-[3-[4-(trifluoromethoxy)phenyl]-4,5-dihydrobenzo[g][2,1]benzoxazol-7-yl]methyleneamino]thiourea]
≥ 75%: mortality at 800 ppm [1] | mortality at 500 ppm [3] | mortality at 800 ppm [7]

CCc1ccccc1NC(=S)N/N=C/c1ccc2c(c1)CCc1c-2cnn1-c1ccc(OC(F)(F)F)cc1 [C-19, 1-(2-ethylphenyl)-3-[[3-[4-(trifluoromethoxy)phenyl]-5,8-dihydro-4H-benzo[e]indazol-7-ylidene]methylimino]thiourea]
≥ 75%: mortality at 300 ppm [8]

FC(F)(F)Oc1ccc(-n2cnc3c4ccc(/C=N/NC(=S)Nc5ccccc5C(F)(F)F)cc4ccc32)cc1 [C-24, 1-[[3-[4-(trifluoromethoxy)phenyl]-9aH-benzo[e]benzimidazol-7-ylidene]methylimino]-3-[2-(trifluoromethyl)phenyl]isothiourea]
≥ 75%: mortality at 500 ppm [3] | mortality at 800 ppm [4] | mortality at 800 ppm [5] | mortality at 500 ppm [6] | mortality at 300 ppm [8]

COc1ccc(C)cc1NC(=S)N/N=C/c1ccc2c(ccc3c2ncn3-c2ccc(OC(F)(F)F)cc2)c1 [C-25, 1-(2-methoxy-5-methyl-phenyl)-3-[(E)-[3-[4-(trifluoromethoxy)phenyl]benzo [e]benzimidazol-7-yl]methyleneamino] thiourea]
≥ 75%: mortality at 300 ppm [9] | mortality at 800 ppm [1] | mortality at 800 ppm [4] | mortality at 800 ppm [5]

C/C(=N\NC(=S)Nc1c(C)cccc1C)c1ccc2c(ccc3c2ncn3-c2ccc(OC(F)(F)F)cc2)c1 [C-58, 1-(2,6-dimethylphenyl)-3-[(E)-1-[3-[4-(trifluoromethoxy)phenyl]benzo[e]benzimidazol-7-yl]ethylideneamino]thiourea]
≥ 75%: mortality at 300 ppm [9] | mortality at 800 ppm [1] | mortality at 800 ppm [2] | mortality at 500 ppm [3] | mortality at 800 ppm [4] | mortality at 800 ppm [5] | mortality at 500 ppm [6] | mortality at 800 ppm [7]

Cc1cccc(Cl)c1NC(=S)N/N=C/c1ccc2c(ccc3c2ncn3-c2ccc(OC(F)(F)F)cc2)c1 [C-79, 1-(2-chloro-6-methyl-phenyl)-3-[(E)-[3-[4-(trifluoromethoxy)phenyl]benzo[e]benzimidazol-7-yl]methyleneamino] thiourea]
≥ 75%: mortality at 300 ppm [9] | mortality at 800 ppm [1] | mortality at 800 ppm [2] | mortality at 500 ppm [3] | mortality at 800 ppm [4] | mortality at 800 ppm [5] | mortality at 500 ppm [6] | mortality at 800 ppm [7]

CCc1cccc(C)c1NC(=S)N/N=C/c1ccc2c(ccc3c(-c4ccc(OC(F)(F)F)cc4)n(C)nc32)c1 [C-92, 1-(2-ethyl-6-methyl-phenyl)-3-[(E)-[2-methyl-3-[4-(trifluoromethoxy)phenyl]benzo[g]indazol-7-yl]methyleneamino] thiourea]
≥ 75%: mortality at 800 ppm [1] | mortality at 800 ppm [2] | mortality at 500 ppm [3] | mortality at 800 ppm [4] | mortality at 800 ppm [5] | mortality at 500 ppm [6] | mortality at 800 ppm [7]

O=C(N/N=C/c1ccc2c(ccc3c2ncn3-c2ccc(OC(F)(F)F)cc2)c1)Nc1ccccc1Cl [C-100, 3-(2-chlorophenyl)-1-[[3-[4-(trifluoromethoxy)phenyl]-8H-benzo[e]benzimidazol-7-ylidene]methylimino] isourea]
≥ 75%: mortality at 300 ppm [8]

Cc1cccc(C)c1NC(=S)N/N=C/c1ccc2c(ccc3c2ncn3-c2ccc(C(F)(F)C(F)(F)F)cc2)c1 [C-110, 1-(2,6-dimethylphenyl)-3-[(E)-[3-[4-(1,1,2,2,2-pentafluoroethyl)phenyl]benzo[e]benzimidazol-7-yl]methyleneamino]thiourea]
≥ 75%: mortality at 800 ppm [1] | mortality at 800 ppm [2] | mortality at 800 ppm [4] | mortality at 800 ppm [5] | mortality at 800 ppm [7]

Cc1cccc(C)c1NC(=S)N/N=C/c1ccc2c(ccc3c2ncn3-c2ccc(C(F)(F)F)cc2F)c1 [C-113, 1-(2,6-dimethylphenyl)-3-[[3-[2-fluoro-4-(trifluoromethyl)phenyl]-3aH-benzo[e]benzimidazol-7-ylidene]methylimino]thiourea]
≥ 75%: mortality at 800 ppm [1] | mortality at 800 ppm [2] | mortality at 800 ppm [4] | mortality at 800 ppm [5] | mortality at 800 ppm [7]
